Broadly, the pIC50 is the negative decadic logarithm of the IC50, by convention in mol/L. Higher therefore signals a low IC50. Broadly, the pKd is the negative decadic logarithm of the Kd, by convention in mol/L.

We go through nine compounds from patent US20240158446A1, “CYCLIC COMPOUND HAVING SELECTIVE INHIBITORY ACTION ON KRAS OVER HRAS AND NRAS” (CHUGAI SEIYAKU KABUSHIKI KAISHA, priority 2021, published 2024).

For assay [1], the target named is GDP-bound NRAS wild-type protein (Homo sapiens, UniProt P01111). The assay can be described thus: Binding to NRAS by surface plasmon resonance (SPR), Single Cycle Kinetics. The conditions noted are these: for NRAS/KRAS (ratio of KD value for NRAS to KD value for KRAS): SPR, GDP-bound NRAS wild-type protein vs GDP-bound KRAS wild-type protein. In general terms: Surface plasmon resonance follows binding to a sensor surface in real time, without labels.
GDP-bound NRAS wild-type protein, sequence (P01111 whole entry): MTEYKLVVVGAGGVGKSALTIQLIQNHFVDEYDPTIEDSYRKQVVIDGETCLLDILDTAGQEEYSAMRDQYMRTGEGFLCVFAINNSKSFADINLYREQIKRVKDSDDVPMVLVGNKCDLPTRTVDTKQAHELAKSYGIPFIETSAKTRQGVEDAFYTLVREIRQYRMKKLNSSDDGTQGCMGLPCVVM

Assay [2] deals with human lung cancer strain NCI-H441.
Assay [3] concerns the target GDP-bound HRAS wild-type protein (Homo sapiens, UniProt P01112). The assay can be described thus: Binding to HRAS by surface plasmon resonance (SPR), Single Cycle Kinetics. As to conditions: for HRAS/KRAS (ratio of KD value for HRAS to KD value for KRAS): SPR, GDP-bound HRAS wild-type protein vs GDP-bound KRAS wild-type protein.
Assay [4] has as its target GDP-bound KRAS wild-type protein (Homo sapiens, UniProt P01116). The assay can be described thus: Binding to KRAS by surface plasmon resonance (SPR), Single Cycle Kinetics. The conditions noted are these: GDP-bound KRAS wild-type protein, read-out: KRAS KD.
[5] abbreviates: SPR, Single Cycle Kinetics, 1:1 binding model.

pIC50, pKd: −log10 of the molar value. Where two headings read alike, the source gives them in different places.
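Wherever pIC50 is given: cell proliferation inhibition after four days measured by CellTiter-Glo.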

GDP-bound HRAS wild-type protein, sequence (P01112 whole entry): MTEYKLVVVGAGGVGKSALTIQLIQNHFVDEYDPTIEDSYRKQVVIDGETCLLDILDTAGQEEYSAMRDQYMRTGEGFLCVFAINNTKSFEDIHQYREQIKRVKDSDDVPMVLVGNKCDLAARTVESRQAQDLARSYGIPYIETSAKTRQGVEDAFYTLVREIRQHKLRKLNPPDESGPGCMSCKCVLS
GDP-bound KRAS wild-type protein, sequence (P01116 whole entry): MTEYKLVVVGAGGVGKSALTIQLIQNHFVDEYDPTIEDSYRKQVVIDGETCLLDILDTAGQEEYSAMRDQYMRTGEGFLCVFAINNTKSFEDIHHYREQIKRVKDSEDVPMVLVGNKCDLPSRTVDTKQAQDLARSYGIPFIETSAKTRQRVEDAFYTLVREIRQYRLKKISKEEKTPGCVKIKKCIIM

On to `CCO[C@@H]1C[C@H]2C(=O)NC3(CCC3)C(=O)N(C)[C@@H](C3CCCC3)C(=O)N(C)[C@H](C(=O)N(C)C)CC(=O)N(C)[C@@H](CC)C(=O)N[C@@H](C3CCC3)C(=O)N(C)CC(=O)N(C)[C@H]3C/C=C\CCN(C3=O)[C@@H](Cc3ccc(C(F)(F)F)cc3)C(=O)N(C)CC(=O)N[C@@H](CCc3cc(F)c(C(F)(F)F)c(F)c3)C(=O)N2C1` [PP1269, (2S,8S,12R,14S,20S,23S,27S,30S,36S,38Z)-30-cyclobutyl-20-cyclopentyl-8-[2-[3,5-difluoro-4-(trifluoromethyl)phenyl]ethyl]-12-ethoxy-27-ethyl-N,N,4,19,22,26,32,35-octamethyl-3,6,9,15,18,21,25,28,31,34,42-undecaoxo-2-[[4-(trifluoromethyl)phenyl]methyl]spiro[1,4,7,10,16,19,22,26,29,32,35-undecazatricyclo[34.5.1.0^10,14]dotetracont-38-ene-17,1′-cyclobutane]-23-carboxamide], for which, in assay [1] (KD ratio class), the “NRAS/KRAS (ratio of KD value for NRAS to KD value for KRAS)” value is “A (a compound having 10 or more and less than 20 is denoted as A)”. Besides, the pIC50 in assay [2] is 7.54. Further, the “HRAS/KRAS (ratio of KD value for HRAS to KD value for KRAS)” value in assay [3] (KD ratio class) was “B (a compound having 3 or more and less than 10 is denoted as B)”. Moreover, in assay [4] (setting [5]), the pKd was 10.04.

Consider `CCO[C@@H]1C[C@H]2C(=O)NC3(CCC3)C(=O)N(C)[C@@H](C3CCCC3)C(=O)N(C)[C@H](C(=O)N(C)C)CC(=O)N(C)[C@@H](CC3CC3)C(=O)N[C@@H]([C@@H](C)CC)C(=O)N(C)CC(=O)N(C)[C@H]3C/C=C\CCN(C3=O)[C@@H](Cc3ccc(F)cc3)C(=O)N(C)CC(=O)N[C@@H](CCc3cc(F)c(Cl)c(F)c3)C(=O)N2C1` [PP1479], for which, in assay [1] (KD ratio class), the “NRAS/KRAS (ratio of KD value for NRAS to KD value for KRAS)” value was “A (a compound having 10 or more and less than 20 is denoted as A)”. In assay [2], the pIC50 was 6.85. Besides, the “HRAS/KRAS (ratio of KD value for HRAS to KD value for KRAS)” value in assay [3] (KD ratio class) is “B (a compound having 3 or more and less than 10 is denoted as B)”. Moreover, the pKd in assay [4] (setting [5]) is 9.31.

Regarding `CCOC[C@H]1C(=O)N[C@@H]([C@@H](C)CC)C(=O)N(C)CC(=O)N(C)[C@H]2C/C=C\CCN(C2=O)[C@@H](Cc2ccc(C)cc2)C(=O)N(C)CC(=O)N[C@@H](CCc2cc(F)c(C(F)(F)F)c(F)c2)C(=O)N2C[C@@H](C)C[C@H]2C(=O)NC2(CC(C)(C)C2)C(=O)N(C)[C@@H](C2CCCC2)C(=O)N(C)[C@H](C(=O)N(C)CC)CC(=O)N1C` [PP2457], in assay [1], the “NRAS/KRAS (ratio of KD value for NRAS to KD value for KRAS)” value is “A (a compound having 10 or more and less than 20 is denoted as A)”. The compound further had a negative logarithm of the IC50 (pIC50) in assay [2] of 7.88. Moreover, in assay [3], the “HRAS/KRAS (ratio of KD value for HRAS to KD value for KRAS)” value was “A (a compound having 10 or more and less than 20 is denoted as A)”. For the same compound, in assay [4] (SPR, Single Cycle Kinetics), the pKd was 9.77.

Consider `CCO[C@@H]1C[C@H]2C(=O)NC3(CCC3)C(=O)N(C)[C@@H](C3CCCC3)C(=O)N(C)[C@H](C(=O)N(C)CCOC)CC(=O)N(C)[C@@H](CC3CC3)C(=O)N[C@@H]([C@@H](C)CC)C(=O)N(C)CC(=O)N(C)[C@H]3C/C=C\CCN(C3=O)[C@@H](Cc3ccc(C(F)(F)F)cc3)C(=O)N(C)CC(=O)N[C@@H](CCc3ccc(Cl)c(Cl)c3)C(=O)N2C1` [PP1329], for which the “NRAS/KRAS (ratio of KD value for NRAS to KD value for KRAS)” value in assay [1] (KD ratio class) is listed as “AA (a compound having 20 or more is denoted as AA)”. Moreover, in assay [2], the pIC50 is 7.46. For the same compound, in assay [3] (KD ratio class), the “HRAS/KRAS (ratio of KD value for HRAS to KD value for KRAS)” value is “A (a compound having 10 or more and less than 20 is denoted as A)”. Moreover, the pKd in assay [4] (setting [5]) was 9.62.

For `CCC[C@H]1C(=O)N[C@@H]([C@@H](C)CC)C(=O)N(C2CC2)CC(=O)N(C)[C@H]2C/C=C\CCN(C2=O)[C@@H](Cc2ccc(C)cc2)C(=O)N(C)CC(=O)N[C@@H](CCc2cc(F)c(C(F)(F)F)c(F)c2)C(=O)N2C[C@H](OCC)C[C@H]2C(=O)NC2(CC(C)(C)C2)C(=O)N(C)[C@@H](CC(C)(C)C)C(=O)N(C)[C@H](C(=O)N(C)C)CC(=O)N1C` [PP2718], in assay [1] (SPR KD ratio NRAS/KRAS, class symbols), the “NRAS/KRAS (ratio of KD value with respect to GDP-bound NRAS wild-type protein to KD value with respect to KRAS)” value was “A (a compound having 10 or more and less than 20 is denoted as A)”. In assay [2], the pIC50 was 8.12. The “HRAS/KRAS (ratio of KD value with respect to GDP-bound HRAS wild-type protein to KD value with respect to KRAS)” value in assay [3] (SPR KD ratio HRAS/KRAS, class symbols) is “A (a compound having 10 or more and less than 20 is denoted as A)”. Besides, the pKd in assay [4] (SPR Single Cycle Kinetics, 1:1 binding model) was 9.48.

For `CCO[C@@H]1C[C@H]2C(=O)NC3(CCC3)C(=O)N(C)[C@@H](C3CCCC3)C(=O)N(C)[C@H](C(=O)N3CCOCC3)CC(=O)N(C)[C@@H](CC)C(=O)N[C@@H]([C@@H](C)CC)C(=O)N(C)CC(=O)N(C)[C@H]3CC[C@@H](C)CN(C3=O)[C@@H](Cc3ccc(C(F)(F)F)cc3)C(=O)N(C)CC(=O)N[C@@H](CCc3cc(F)c(C(F)(F)F)c(F)c3)C(=O)N2C1` [PP1372], the “NRAS/KRAS (ratio of KD value for NRAS to KD value for KRAS)” value in assay [1] (KD ratio class) is “B (a compound having 3 or more and less than 10 is denoted as B)”. The negative-log IC50 (pIC50) in assay [2] was 8.30. Also, in assay [3] (KD ratio class), the “HRAS/KRAS (ratio of KD value for HRAS to KD value for KRAS)” value was “B (a compound having 3 or more and less than 10 is denoted as B)”. In addition, the negative logarithm of the Kd (pKd) in assay [4] (setting [5]) is 10.11.

As for `CCO[C@@H]1C[C@H]2C(=O)NC3(CCC3)C(=O)N(C)[C@@H](C3CCCC3)C(=O)N(C)[C@H](C(=O)N(C)C)CC(=O)N(C)[C@@H](CC(C)(C)C)C(=O)N[C@@H]([C@@H](C)CC)C(=O)N(C)CC(=O)N(C)[C@H]3C/C=C\CCN(C3=O)[C@@H](CC3CCC(F)(F)CC3)C(=O)N(C)CC(=O)N[C@@H](CCc3cc(F)c(C(F)(F)F)c(F)c3)C(=O)N2C1` [PP1460], the “NRAS/KRAS (ratio of KD value for NRAS to KD value for KRAS)” value in assay [1] (KD ratio class) was “A (a compound having 10 or more and less than 20 is denoted as A)”. The pIC50 in assay [2] was 7.48. The “HRAS/KRAS (ratio of KD value for HRAS to KD value for KRAS)” value in assay [3] (KD ratio class) was “A (a compound having 10 or more and less than 20 is denoted as A)”. Also, the negative-log Kd (pKd) in assay [4] (setting [5]) is 9.64.

Turning to `CC[C@H](C)[C@@H]1NC(=O)[C@H](CC)N(C)C(=O)C[C@@H](C(=O)N(C)C)N(C)C(=O)[C@H](C2CCCC2)N(C)C(=O)C2(CCCC2)NC(=O)[C@@H]2CCCN2C(=O)[C@H](CCc2cc(F)c(C(F)(F)F)c(F)c2)NC(=O)CN(C)C(=O)[C@H](Cc2ccc(C(F)(F)F)cc2)N2C[C@H](C)[C@H](C)C[C@@H](C2=O)N(C)C(=O)CN(C)C1=O` [PP1364], the “NRAS/KRAS (ratio of KD value for NRAS to KD value for KRAS)” value in assay [1] (KD ratio class) is “A (a compound having 10 or more and less than 20 is denoted as A)”. For the same compound, the pIC50 in assay [2] is 8.15. The “HRAS/KRAS (ratio of KD value for HRAS to KD value for KRAS)” value in assay [3] (KD ratio class) is “B (a compound having 3 or more and less than 10 is denoted as B)”. Moreover, the pKd in assay [4] (setting [5]) was 10.30.

Take `CCC[C@H]1C(=O)N[C@@H]([C@@H](C)CC)C(=O)N(C)CC(=O)N(C)[C@H]2C/C=C\CCN(C2=O)[C@@H](Cc2ccc(C(F)(F)F)cc2)C(=O)N(C)CC(=O)N[C@@H](CCc2cc(F)c(C(F)(F)F)c(F)c2)C(=O)N2C[C@H](OCC)C[C@H]2C(=O)NC2(CCC2)C(=O)N(C)[C@@H](C2CCCC2)C(=O)N(C)[C@H](C(=O)N2CCOCC2)CC(=O)N1C` [PP1288]: the “NRAS/KRAS (ratio of KD value for NRAS to KD value for KRAS)” value in assay [1] (KD ratio class) is “AA (a compound having 20 or more is denoted as AA)”. The compound also gave a pIC50 in assay [2] of 7.65. In assay [3] (KD ratio class), the “HRAS/KRAS (ratio of KD value for HRAS to KD value for KRAS)” value was “A (a compound having 10 or more and less than 20 is denoted as A)”. Moreover, the pKd in assay [4] (setting [5]) is 9.74.
